Activity calls are given as the source filed them. The calls are words filed in the database; no cut-off is given here.
Columns and labels:
Mus musculus [1] = test: Time of peak effect in mice following i.p. administration.; format: functional
Mus musculus [2] = test: The compound was tested for anticonvulsant activity in Maximal electroshock seizure test for 30 min in mice(ip); active at 30 mg/kg; format: functional, organism-based; design: dose 30 mg/kg
Mus musculus [3] = test: The compound was tested for anticonvulsant activity in Maximal electroshock seizure test (MES) for 4 hr in mice(ip); no activity or toxicity at 300 mg/kg; format: functional, organism-based; design: dose 300 mg/kg
Mus musculus [4] = test: The compound was tested to inhibit 50% of induced maximal electroshock seizure in mice on ip administration.; format: functional
Mus musculus [5] = test: Inhibition of s.c. pentylenetetrazole induced seizure in mice following i.p. administration.; format: functional
Mus musculus [6] = test: The compound was determined for the dose (mg/kg) by rotarod test at the time of peak neurotoxic effect in mice on ip administration.; format: functional
Mus musculus [7] = test: Anticonvulsant activity in subcutaneous pentylenetetrazole seizure test for 30 min in mice; No activity/toxicity at 300 mg/kg.; format: functional, organism-based; design: dose 300 mg/kg
Mus musculus [8] = test: The anticonvulsant activity in subcutaneous pentylenetetrazole seizure test (sc Met) for 4 hr in mice; no activity or no toxicity at 300 mg/kg; format: functional, organism-based; design: dose 300 mg/kg
Rattus norvegicus [9] = test: The compound was tested for the effective oral dose to inhibit 50% of the anticonvulsant in rats.(Value in parenthesis indicate 95% confidence limits); format: functional
Rattus norvegicus [10] = test: The compound was tested peroral dose of 30 mg/kg for 0.5 hours for rotarod toxicity; 0/4; format: functional; details: route oral
Rattus norvegicus [11] = test: The compound was tested peroral dose of 30 mg/kg for 1 hour for rotarod toxicity; 0/4; format: functional; details: route oral
Rattus norvegicus [12] = test: The compound was tested peroral dose of 30 mg/kg for 2 hours for rotarod toxicity; 0/4; format: functional; details: route oral
Rattus norvegicus [13] = test: The compound was tested peroral dose of 30 mg/kg for 4 hours for rotarod toxicity; 0/4; format: functional; details: route oral
Rattus norvegicus [14] = test: The compound was tested peroral dose of 30 mg/kg for 0.5 hours for maximal electroshock test on rats; MES= 3/4; format: functional; details: route oral
Rattus norvegicus [15] = test: The compound was tested peroral dose of 30 mg/kg for 1 hour for maximal electroshock test on rats; MES= 1/4; format: functional; details: route oral
Rattus norvegicus [16] = test: The compound was tested peroral dose of 30 mg/kg for 2 hours for maximal electroshock test on rats; MES= 0/4; format: functional; details: route oral
Rattus norvegicus [17] = test: The compound was tested peroral dose of 30 mg/kg for 4 hours for maximal electroshock test on rats; MES= 1/4; format: functional; details: route oral
Rattus norvegicus [18] = test: The compound was tested peroral dose of 30 mg/kg for 0.25 hours for maximal electroshock test on rats; MES= 3/4; format: functional; details: route oral
Rattus norvegicus [19] = test: The compound was tested for the toxic dose on oral administration.; format: functional
Rattus norvegicus [20] = species on record: Rattus norvegicus; test: Protective index value is the ratio between ED50 and TD50; format: functional
Sigma 2 receptor = test: Affinity on sigma 2 receptor using [3H]- DTG as radioligand
[21] = target: Sigma non-opioid intracellular receptor 1 (Homo sapiens) (UniProt Q99720); test: Ratio between the Ki(nM)values of sigma-2 and sigma-1; format: functional
Sequence of Sigma non-opioid intracellular receptor 1 (Homo sapiens) (Q99720 whole entry): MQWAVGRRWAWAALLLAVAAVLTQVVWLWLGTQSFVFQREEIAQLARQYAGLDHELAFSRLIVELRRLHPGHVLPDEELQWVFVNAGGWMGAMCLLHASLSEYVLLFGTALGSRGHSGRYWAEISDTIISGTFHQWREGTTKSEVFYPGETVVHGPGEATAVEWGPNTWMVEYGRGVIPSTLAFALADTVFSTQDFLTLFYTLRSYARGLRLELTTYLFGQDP

[22] = The compound was tested for neurologic toxicity (rotarod) test for 30 min in mice; active at 300 mg/kg; format: organism-based; design: dose 300 mg/kg; details: mouse, in vivo, 0.5 h
[23] = The compound was tested for time of peak effect (TPE) in hours for its toxicity in mice on ip administration.; format: organism-based; details: mouse, in vivo
[24] = The compound was tested for neurologic toxicity (rotarod) test for 4 hours in mice; no activity or no toxicity at 300 mg/kg; format: organism-based; design: dose 300 mg/kg; details: mouse, in vivo
Rattus norvegicus [25] = test: The compound was tested peroral dose of 30 mg/kg for 0.25 hours for rotarod toxicity; 0/4; format: functional; details: route oral

CCCc1ccc2c(c1)sc(=O)n2CCN1CCCCC1
Activity (Mus musculus [1]): 0.25 h
MES (Mus musculus [2]): active at 30 mg/kg
MES (Mus musculus [3]): active at 30 mg/kg
ED50 (Mus musculus [4]): 7.6 mg/kg
ED50 (Mus musculus [5]): > 75 mg/kg
TD50 (Mus musculus [6]): 29.4 mg/kg
scMet (Mus musculus [7]): No activity or no toxicity at 300 mg/kg
scMet (Mus musculus [8]): No activity or no toxicity at 300 mg/kg
ED50 (Rattus norvegicus [9]): 18.6 mg/kg
No. of animals exhibiting toxicity / Number of animals tested (Rattus norvegicus [10]): 0
No. of animals exhibiting toxicity / Number of animals tested (Rattus norvegicus [11]): 0
No. of animals exhibiting toxicity / Number of animals tested (Rattus norvegicus [12]): 0
No. of animals exhibiting toxicity / Number of animals tested (Rattus norvegicus [13]): 0
Protected/Tested (Rattus norvegicus [14]): 3
Protected/Tested (Rattus norvegicus [15]): 1
Protected/Tested (Rattus norvegicus [16]): 0
Protected/Tested (Rattus norvegicus [17]): 1
Protected/Tested (Rattus norvegicus [18]): 3
TD50 (Rattus norvegicus [19]): < 500 mg/kg
PI (Rattus norvegicus [20]): 26.9
Ki (Sigma 2 receptor): 18.1 nM
Ratio [21]: 29
Rotarod toxicity [22]: active at 300 mg/kg
Toxicity [23]: 0.25 h
Rotarod toxicity [24]: active at 300 mg/kg
No. of animals exhibiting toxicity / Number of animals tested (Rattus norvegicus [25]): 0

— ChEMBL document CHEMBL1131315, “Synthesis and anticonvulsant activity of 2(3H)-benzoxazolone and 2(3H)-benzothiazolone derivatives” (J Med Chem, 1998)
